Tests used:
[1] = system: Staphylococcus aureus (ATCC 29213); assay: Antibiotic susceptibility by glucose consumption in culture medium, blood culture bottle inoculum (Example 1); assay type: cell-based; details: for Glucose concentration t=60: 60 minutes; for Glucose concentration t=120: 120 minutes; for Glucose concentration t=180: 180 minutes; for Glucose concentration t=240: 240 minutes; for dC/dT: rate of change in glucose concentration;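 on dC/dT: rate calculated between the 60 and 180 min readings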
Description: (§1) Strains of Escherichia coli (ATCC 25922), Enterococcus faecalis (ATCC 29212) and Staphylococcus aureus (ATCC 29213) were inoculated in blood culture bottles (SVA, Uppsala, Sweden) and cultivated according to the manufacturer's instructions until positive.
(§2) Medium from each blood culture bottle was diluted 1:100 with cation adjusted Mueller-Hinton broth (SVA, Uppsala, Sweden) supplemented with glucose to a concentration of 1.0 mg/mL.
(§3) Table 1: Concentrations of antibiotic agents are given in µg/mL.
(§4) Glucose concentrations were measured at 0, 60, 120, 180, and 240 minutes using a WaveSense Jazz glucometer (AgaMatrix, Inc., Salem, NH, USA) with accompanying test strips.
(§5) Susceptibility scores corresponding to MIC values were calculated as described above. A 80% threshold was applied, i.e. the lowest concentration of antibiotic that entailed a rate of change in glucose concentration that was equal to or less than 80% of the reference was selected as the Minimal Inhibitory Concentration. The rate of change was calculated between the measurements at 60 and 180 minutes.

[2] = system: Escherichia coli (ATCC 25922); assay: as above; assay type: cell-based; details: for Glucose concentration t=60: 60 minutes; for Glucose concentration t=120: 120 minutes; for Glucose concentration t=180: 180 minutes; for dC/dT: rate of change in glucose concentration;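 on dC/dT: rate calculated between the 60 and 180 min readings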
Description: as §1, §2, §3, §4, §5

## CN[C@H](CC(C)C)C(=O)N[C@H]1C(=O)N[C@@H](CC(N)=O)C(=O)N[C@H]2C(=O)N[C@H]3C(=O)N[C@H](C(=O)N[C@H](C(=O)O)c4cc(O)cc(O)c4-c4cc3ccc4O)[C@H](O)c3ccc(c(Cl)c3)Oc3cc2cc(c3O[C@@H]2O[C@H](CO)[C@@H](O)[C@H](O)[C@H]2O[C@H]2C[C@](C)(N)[C@H](O)[C@H](C)O2)Oc2ccc(cc2Cl)[C@H]1O [Vancomycin]
[1]; [Ab] 0,5 µg/mL
  F=the rate of change in glucose concentration in relation to the reference: 84%
  Glucose concentration t=60: 156
  Glucose concentration t=120: 142
  Glucose concentration t=180: 100
  Glucose concentration t=240: 51
  dC/dT: 28
[1]; [Ab] 0,25 µg/mL
  F=the rate of change in glucose concentration in relation to the reference: 75%
  Glucose concentration t=60: 142
  Glucose concentration t=120: 133
  Glucose concentration t=180: 92
  Glucose concentration t=240: 42
  dC/dT: 25
[1]; [Ab] 1 µg/mL
  F=the rate of change in glucose concentration in relation to the reference: 96%
  Glucose concentration t=60: 161
  Glucose concentration t=120: 140
  Glucose concentration t=180: 97
  Glucose concentration t=240: 51
  dC/dT: 32
[1]; [Ab] 2 µg/mL
  F=the rate of change in glucose concentration in relation to the reference: 88%
  Glucose concentration t=60: 160
  Glucose concentration t=120: 143
  Glucose concentration t=180: 101
  Glucose concentration t=240: 53
  dC/dT: 30
[1]; [Ab] 4 µg/mL
  F=the rate of change in glucose concentration in relation to the reference: 39%
  Glucose concentration t=60: 157
  Glucose concentration t=120: 147
  Glucose concentration t=180: 131
  Glucose concentration t=240: 107
  dC/dT: 13
[1]; [Ab] 8 µg/mL
  F=the rate of change in glucose concentration in relation to the reference: 6%
  Glucose concentration t=60: 150
  Glucose concentration t=120: 150
  Glucose concentration t=180: 146
  Glucose concentration t=240: 149
  dC/dT: 2
[1]; [Ab] 16 µg/mL
  F=the rate of change in glucose concentration in relation to the reference: 7%
  Glucose concentration t=60: 157
  Glucose concentration t=120: 153
  Glucose concentration t=180: 152
  Glucose concentration t=240: 149
  dC/dT: 3
[1]; [Ab] 32 µg/mL
  F=the rate of change in glucose concentration in relation to the reference: 13%
  Glucose concentration t=60: 157
  Glucose concentration t=120: 140
  Glucose concentration t=180: 148
  Glucose concentration t=240: 146
  dC/dT: 5
[2]; [Ab] 0,5 µg/mL
  F=the rate of change in glucose concentration in relation to the reference: 65%
  Glucose concentration t=60: 149
  Glucose concentration t=120: 145
  Glucose concentration t=180: 68
  dC/dT: 41
[2]; [Ab] 0,25 µg/mL
  F=the rate of change in glucose concentration in relation to the reference: 68%
  Glucose concentration t=60: 150
  Glucose concentration t=120: 145
  Glucose concentration t=180: 66
  dC/dT: 42
[2]; [Ab] 1 µg/mL
  F=the rate of change in glucose concentration in relation to the reference: 73%
  Glucose concentration t=60: 155
  Glucose concentration t=120: 149
  Glucose concentration t=180: 65
  dC/dT: 45
[2]; [Ab] 2 µg/mL
  F=the rate of change in glucose concentration in relation to the reference: 65%
  Glucose concentration t=60: 147
  Glucose concentration t=120: 151
  Glucose concentration t=180: 67
  dC/dT: 40
[2]; [Ab] 4 µg/mL
  F=the rate of change in glucose concentration in relation to the reference: 69%
  Glucose concentration t=60: 147
  Glucose concentration t=120: 145
  Glucose concentration t=180: 61
  dC/dT: 43
[2]; [Ab] 8 µg/mL
  F=the rate of change in glucose concentration in relation to the reference: 87%
  Glucose concentration t=60: 159
  Glucose concentration t=120: 147
  Glucose concentration t=180: 51
  dC/dT: 54
[2]; [Ab] 0,125 µg/mL
  F=the rate of change in glucose concentration in relation to the reference: 71%
  Glucose concentration t=60: 153
  Glucose concentration t=120: 154
  Glucose concentration t=180: 65
  dC/dT: 44
[2]; [Ab] 0,0625 µg/mL
  F=the rate of change in glucose concentration in relation to the reference: 67%
  Glucose concentration t=60: 148
  Glucose concentration t=120: 144
  Glucose concentration t=180: 65
  dC/dT: 42

Source: patent EP3717657B1, “A SYSTEM FOR ASSESSING MICROBIAL SUSCEPTIBILITY TO ANTIBIOTIC AGENTS” (Ascilion AB, priority 2017, dated 2019)
